Measurements: PubChem BioAssay AID222 (DTP/NCI, 2004)
Toxic doses and inconclusive results are not listed. The calls were made as follows: active = survival T/C of 150% or more; inactive = T/C below 125% in these data.

System: C57BL/6 mice, intracerebral ependymoblastoma, median survival T/C
Assay: NCI In Vivo Anticancer Drug Screen. Data for tumor model Ependymoblastoma (intracerebral) in C57BL/6 mice
Details: endpoint: median survival time, higher = longer survival
Protocol: The antitumor activity of compounds was measured in mice bearing transplantable tumors. Survival or tumor size were measured and the results are expressed as the measurement made in the treated group (T) divided by the measurement made in the vehicle treated control group (C). The tumor model used in this assay is Ependymoblastoma (intracerebral) in C57BL/6 mice

Measured: T/C

COc1cc([C@@H]2c3cc4c(cc3[C@@H](OC3OC5CO[C@@H](c6cccs6)OC5C(O)C3O)[C@H]3COC(=O)[C@H]23)OCO4)cc(OC)c1O (some centres not stated)
inactive: dose: 0.06 mg/kg/injection, schedule: Q01DX005 (ip), vehicle: saline 101 % of control | dose: 0.12 mg/kg/injection, schedule: Q01DX005 (ip), vehicle: saline 95 % of control | dose: 0.25 mg/kg/injection, schedule: Q01DX005 (ip), vehicle: saline 97 % of control | dose: 0.5 mg/kg/injection, schedule: Q01DX005 (ip), vehicle: saline 99 % of control | dose: 1.0 mg/kg/injection, schedule: Q01DX005 (ip), vehicle: saline 104 % of control | dose: 1.0 mg/kg/injection, schedule: Q01DX005 (oral), vehicle: saline 101 % of control | dose: 2.0 mg/kg/injection, schedule: Q01DX005 (ip), vehicle: saline 114 % of control | dose: 4.0 mg/kg/injection, schedule: Q01DX005 (oral), vehicle: saline 104 % of control | dose: 8.0 mg/kg/injection, schedule: Q01DX005 (oral), vehicle: saline 100 % of control | dose: 16.0 mg/kg/injection, schedule: Q01DX005 (oral), vehicle: saline 95 % of control

CCN(CC)c1ccc2cc3ccc(=[N+](CC)CC)cc-3oc2c1
inactive: dose: 4.0 mg/kg/injection, schedule: Q01DX005 (ip), vehicle: saline 100 % of control | dose: 8.0 mg/kg/injection, schedule: Q01DX005 (ip), vehicle: saline 107 % of control

Cc1ncc([N+](=O)[O-])n1CCO
inactive: dose: 64.0 mg/kg/injection, schedule: Q01DX005 (ip), vehicle: Klucel (hydroxypropylcellulose) (HPC) 103 % of control | dose: 128.0 mg/kg/injection, schedule: Q01DX005 (ip), vehicle: Klucel (hydroxypropylcellulose) (HPC) 99 % of control | dose: 256.0 mg/kg/injection, schedule: Q01DX005 (ip), vehicle: Klucel (hydroxypropylcellulose) (HPC) 107 % of control | dose: 512.0 mg/kg/injection, schedule: Q01DX005 (ip), vehicle: Klucel (hydroxypropylcellulose) (HPC) 111 % of control | dose: 1024.0 mg/kg/injection, schedule: Q01DX005 (ip), vehicle: Klucel (hydroxypropylcellulose) (HPC) 94 % of control
